Earlier results on 17 substances are cited in patent publication US20120322745A1, “OPTIMIZED METHOD FOR OBTAINING ACE ACTIVITY INHIBITORY PEPTIDES FROM WHEY, ACE INHIBITORY PEPTIDES AND FOOD COMPRISING THEM” (QUEIZUAR ,S.L., priority 2011, published 2012).

As usually defined, the IC50 is the concentration that inhibits the measured activity by half.

This data set has as its target angiotensin converting enzyme (ACE). The note with it: ACE inhibitory peptides obtained by enzymatic hydrolysis of whey proteins.
Consider ALKAWSVAR [BSA f(208-216)], for which the IC50 is 3 µM.
In the case of “ALPMH (UniProt P02754 158-162, looked up, fragment) [β-Lg f(142-146)]”, the IC50 was 521 µM.
For the substance ALPMHIR [β-Lg (f 142-148)], the IC50 is 42.6 µM.
For the substance CMENSA [β-Lg f(106-111)], the half-maximal inhibitory concentration (IC50) is 788 µM.
As to LDAQSAPLR [β-Lg f(32-40)], the IC50 is 635 µM.
For the substance LKPTPEGN [β-Lg (f 46-53)], the IC50 was above 2700 µM.
As to VGINYWLAHK [α-La f(99-108)], the IC50 was 327 µM.
VLDTDYK [β-Lg f(94-100)]: the IC50 is 946 µM.
As to WLAHK [α-La f(104-108)], the IC50 is 77 µM.
As for “β-Lg (f 102-105): ACE inhibitory peptide, sequence YLLF, from hydrolysis with pepsin, trypsin, chemotrypsin (UniProt P02754 118-121, looked up, fragment)”, the IC50 is 172 µM.
As for “β-Lg (f 122-125): ACE inhibitory peptide, sequence LVRT, from whey protein hydrolysis with thermolysin (UniProt P02754 138-141, looked up, fragment)”, the half-maximal inhibitory concentration (IC50) is 2470 µM.
In the case of “β-Lg f(15-19): ACE inhibitory peptide, sequence VAGT, from hydrolysis with pepsin, trypsin, chemotrypsin”, the IC50 is 1050 µM.
As for “β-Lg f(22-25): ACE inhibitory peptide, sequence LAMA, from whey protein hydrolysis with trypsin (UniProt P02754 38-41, looked up, fragment)”, the IC50 was 556 µM.
Regarding “β-Lg f(58-61): ACE inhibitory peptide, sequence LKQW, from whey protein hydrolysis with thermolysin”, the IC50 was 34.7 µM.
On to “β-Lg f(78-80): ACE inhibitory peptide, sequence IPA, from whey protein hydrolysis with proteinase k (UniProt P02754 94-96, looked up, fragment)”, for which the IC50 was 141 µM.
Turning to “β-Lg f(81-83): ACE inhibitory peptide, sequence VFK, from whey protein hydrolysis with trypsin (UniProt P02754 97-99, looked up, fragment)”, the IC50 is 1030 µM.
On to “β-Lg f(103-105): ACE inhibitory peptide, sequence LLF, from whey protein hydrolysis with thermolysin (UniProt P02754 119-121, looked up, fragment)”, for which the IC50 was 79.8 µM.
